Data: article PMC12442245, “Activity Analysis of the P2X Receptor Antagonist PPADS against Signal Transducer and Activator of Transcription Proteins” (Chembiochem, 2025)

Target: T1, STAT6 (Homo sapiens, UniProt P42226)
T1 sequence (P42226 1-847): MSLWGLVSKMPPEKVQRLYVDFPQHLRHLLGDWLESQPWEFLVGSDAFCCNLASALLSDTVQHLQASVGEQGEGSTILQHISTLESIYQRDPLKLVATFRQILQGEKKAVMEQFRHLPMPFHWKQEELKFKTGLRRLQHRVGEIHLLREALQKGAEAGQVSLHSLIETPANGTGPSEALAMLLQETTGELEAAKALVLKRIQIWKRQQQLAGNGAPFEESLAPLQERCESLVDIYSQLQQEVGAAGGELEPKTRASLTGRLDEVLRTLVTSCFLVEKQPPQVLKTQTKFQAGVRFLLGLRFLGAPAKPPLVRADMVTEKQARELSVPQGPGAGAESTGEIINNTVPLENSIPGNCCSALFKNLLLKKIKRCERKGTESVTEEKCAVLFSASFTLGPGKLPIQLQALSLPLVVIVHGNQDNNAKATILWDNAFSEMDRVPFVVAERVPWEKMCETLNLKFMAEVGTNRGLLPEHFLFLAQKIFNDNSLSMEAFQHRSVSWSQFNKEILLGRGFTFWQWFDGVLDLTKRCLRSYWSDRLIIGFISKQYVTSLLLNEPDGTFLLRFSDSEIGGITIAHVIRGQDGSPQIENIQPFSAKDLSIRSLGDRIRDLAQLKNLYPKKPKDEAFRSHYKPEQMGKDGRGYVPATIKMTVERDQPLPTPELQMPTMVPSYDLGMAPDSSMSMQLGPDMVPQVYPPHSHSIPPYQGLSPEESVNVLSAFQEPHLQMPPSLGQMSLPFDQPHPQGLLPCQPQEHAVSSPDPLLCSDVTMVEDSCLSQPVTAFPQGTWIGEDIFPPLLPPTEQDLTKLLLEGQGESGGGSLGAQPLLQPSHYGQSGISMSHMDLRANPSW
Assay: Competitive fluorescence polarization (FP) assay, STAT6
Assay type: binding
Settings: no reducing agent, 1 h
Description: Screening of chemical libraries […]
PPADS was purchased […]
from Sigma-Aldrich, and iso-PPADS from Bio-Techne.
Fluorescence polarization assays
Competitive fluorescence polarization (FP) assays for STAT1,[2] STAT3,[3] STAT4,[4] STAT5a,[5] STAT5b[6] and STAT6[1] were performed as previously described. Briefly, peptide binding to proteins was analyzed using the following carboxyfluorescein (CF) -labelled pepti des at a concentration of 10 nM: STAT1: 5-CF-GpYDKPHVL-OH, STAT3: 5-CF-GpYLPQTV -NH2, STAT4: 5-CF-GpYLPQNID-OH, STAT5a and STAT5b: 5-CF-GpYLVLDKW-OH, STAT6: 5- […]
CFGp[…]-OH. Proteins were used at a final concentration representing the approximate Kd value for binding of the corresponding peptide to the protein, namely 65 nM for STAT1, 65 nM for STAT3, 35 nM for STAT4, 125 nM for STAT5a, 65 nM for STAT5b and 75 nM for STAT6. Assays were carried out in buffer containing 10 mM Tris/HCl, 50 mM NaCl, 1 mM EDTA, 0.1% NP-40 substitute and 2% DMSO, with 1 mM reducing agent where applicable, at pH 8.0. Proteins were incubated with compound for 1 h at room temperature before adding peptide and incubating for a further 1 h. FP was measured using an Infinite F500 plate reader (Tecan) and measurements were converted into percent inhibition according to […]

## Cc1nc(/N=N/c2ccc(S(=O)(=O)O)cc2S(=O)(=O)O)c(COP(=O)(O)O)c(C=O)c1O [PPADS, pyridoxalphosphate‐6‐azophenyl‐2',4'‐disulfonic acid]
  IC50: 20.1 ± 4.6 µM

## Cc1nc(/N=N/c2cc(S(=O)(=O)O)ccc2S(=O)(=O)O)c(COP(=O)(O)O)c(C=O)c1O [iso‐PPADS]
  IC50: 66 ± 12 µM
